Assay results reported in patent US20240358692A1, “TREATMENT OF SCLERODERMA” (Aisa Pharma, Inc., priority 2023, published 2024).

System: participants with SSc-RP
Assay: Frequency of weekly symptomatic RP attacks (patient diary), Phase 2a Part A
Format: in vivo, human
Settings: ITT Part A
From the text: Percent change from baseline evaluation for frequency of weekly RP attacks were or will be used as the primary efficacy variable. The sponsor-developed participant-informed diary will be used to record data. Frequency of weekly RP attacks is defined as the total number of RP attacks divided by the number of days with available diary data within the last 7 days of each dosing period then multiplied by 7. Total number of RP attacks during the last 7 days of screening period divided by the number of days with available data then multiplied by 7 will be used as baseline for the analysis of all periods. The variable will be calculated as follows: […]
Percent change from baseline evaluation for frequency of weekly RP attacks was and will be the primary efficacy endpoint. Frequency of weekly RP attacks is defined as the total number of RP attacks divided by the number of days with available diary data within the last 7 days of each dosing period then multiplied by 7. Total number of RP attacks during the last 7 days of screening period divided by the number of days with available data then multiplied by 7 will be used as baseline for the analysis of all periods.

[1] = Tadalafil 5 mg, n=1, Excluding Outliers
[2] = Tadalafil 5 mg, n=2, by Baseline RCS, second block (RCS >5.0)
[3] = tadalafil 5 mg daily, n=1, excluding outliers, second Baseline RCS subgroup, last 7 days of dosing

## CN1CC(=O)N2[C@H](c3ccc4c(c3)OCO4)c3[nH]c4ccccc4c3C[C@@H]2C1=O [Tadalafil]
[1]
  Weekly Symptomatic RP Attacks Change from Baseline, Mean: 6.00
  Weekly Symptomatic RP Attacks Percent Change from Baseline, Mean: 50.00%
  Weekly Symptomatic RP Attacks, Mean: 18.00
[2]
  Weekly Symptomatic RP Attacks Change from Baseline, Mean: 4.50
  Weekly Symptomatic RP Attacks Percent Change from Baseline, Mean: 62.50%
  Weekly Symptomatic RP Attacks, Mean: 12.50
[3]
  Weekly Symptomatic RP Attacks Change from Baseline, Mean: 6.00
  Weekly Symptomatic RP Attacks Percent Change from Baseline, Mean: 50.00%
  Weekly Symptomatic RP Attacks, Mean: 18.00
